Common to all, as to format: cell-based
Test [1] deals with MCF-7 breast cancer cells. Kind of test: MCF-7 proliferation / cell viability assay. The settings on record: MCF-7 proliferation with 0.1 nM 17-beta estradiol, read-out: IC50 (anti-proliferation). Here is the method: The Anti-Proliferative Activities of the Exemplary Compounds were Assessed by a Cell Viability Assay in MCF-7 Breast Cancer Cells
MCF-7 cells were plated in six-well plates at a density of 50,000 each well in 5% FBS DMEM medium. The cells were then treated with exemplary compounds or fulvestrant separately at 6 different doses ranging from 10^−10 M to 10^−5 M for 5 days, while equal volumes of DMSO were used as vehicle controls. Viable cell numbers were counted with a Z Series Coulter Counter instrument (Beckman-Coulter) following manufacturer's instructions. The ratio of drug treated viable cell numbers to vehicle treated viable cell numbers was defined as survival ratio where the control has the survival ratio of 100%.

The target in test [2] is T1, ER (Homo sapiens, UniProt P03372).
T1 construct: endogenous in cells; host or cells: T47d-kb-Luc (T47D stably transfected with a luciferase reporter gene only)
T1 sequence (P03372 1-595): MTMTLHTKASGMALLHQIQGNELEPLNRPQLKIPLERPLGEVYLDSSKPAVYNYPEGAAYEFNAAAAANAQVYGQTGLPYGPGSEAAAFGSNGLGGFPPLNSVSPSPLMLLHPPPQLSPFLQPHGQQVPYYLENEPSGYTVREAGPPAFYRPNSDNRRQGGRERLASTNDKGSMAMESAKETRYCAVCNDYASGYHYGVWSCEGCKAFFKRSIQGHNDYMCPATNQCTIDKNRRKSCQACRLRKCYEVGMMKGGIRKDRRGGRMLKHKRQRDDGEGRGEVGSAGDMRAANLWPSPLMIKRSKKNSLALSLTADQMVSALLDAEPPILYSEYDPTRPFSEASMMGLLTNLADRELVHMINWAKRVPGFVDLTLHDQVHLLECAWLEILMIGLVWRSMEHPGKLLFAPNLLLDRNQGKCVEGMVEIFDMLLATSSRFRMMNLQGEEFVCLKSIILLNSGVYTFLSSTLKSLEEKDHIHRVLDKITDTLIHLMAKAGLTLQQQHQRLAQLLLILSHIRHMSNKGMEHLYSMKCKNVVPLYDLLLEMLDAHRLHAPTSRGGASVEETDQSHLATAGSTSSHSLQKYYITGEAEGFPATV
Kind of test: ER antagonism (T47D ERE luciferase), T47d-kb-Luc cells. The settings on record: read-out: IC50 (ER antagonistm). Here is the method: The Antiestrogenic Activity of the Exemplary Compounds was Assessed in T47d-kb-Luc Stably Transfected Human Breast Cancer Cell
Antagonist activities were measured by the compound's ability to inhibit the activity of estradiol, the natural estrogen. Data were then normalized relative to the activity of the estradiol control and determinations were performed for five concentrations of the samples in quadruplicate in at least three separate experiments.

The target in test [3] is T2, ERα (Homo sapiens, UniProt P03372).
T2 construct: endogenous in cells; host or cells: MCF-7
T2 sequence (P03372 1-595): T1 sequence (P03372 1-595)
The test is described as follows: ER degradation in MCF-7 cells (Western blot). The settings on record: for DC50: ER degradation, 24 hours. Here is the method:
Degradation of ER in MCF-7 Breast Cancer Cells by Exemplary Compounds of the Present Disclosure
MCF-7 cells were plated in 24-well plates at a density of 10^5 cells/well. Media containing various drug concentrations were added on the day following plating (day 0) and allowed to incubate for 24 hours for Western blot. Media with the tested compound was changed every other day. Cells were lysed, snapped frozen in liquid nitrogen, and stored at −80° C. until assay for ERα. Media were removed and dishes were washed with 1× DPBS. Lysates were made by adding 150 μL of complete lysis solution and scraping cells into a 1.5 mL microcentrifuge tube. Lysates were placed on a rotisserie at 4° C. for 30 min and then spun at 4° C. at 12000 rcf for 10 min. Supernatants were assayed for protein content, snap-frozen, and stored a −80° C. if not run immediately. Then 50 μg of protein was subjected to Western blot protocol. Membranes were blocked and then incubated with 1:200 dilution of ERα antibody at 4° C. overnight followed by 1:10000 dilution of secondary antibody for 1 h at room temperature. They were then imaged on a LICOR infrared scanner.
FIGS. 1 to 10 show the ER degradation efficacy of compounds 3, 5, 9, 11, 12, 16, 18, 19, 20, 21, 23, 24, 25, 26, 27, 28, 29, 30, 31, 32, 33, 34, 37, 38, and 40 in MCF-7 cells at various concentrations. Degradation of ER was expressed as an DC50 value and was determined for exemplary compounds in Table 1 by calculation of the concentration of compound that was required to give a 50% reduction of ER expression level. Maximal degradation of ER was expressed as a Dmax value by measuring the highest percentage of ER reduction achieved by exemplary compound in the treatment concentration range.

Where [4] appears, read: MCF7, Maximal ER degradation, read-out: Dmax.

In patent publication US20220348595A1, “COMPOUNDS AND METHODS FOR THE TARGETED DEGRADATION OF ESTROGEN RECEPTORS” (Endotarget Inc., priority 2021, published 2022) one finds IC50, DC50 and Dmax data, which are given here for 13 compounds.

Read-outs that look alike come from different tables or passages of the source.

On to `CC/C(=C(\c1ccc(OCCN2CCC(CCN3CCN(c4ccc5c(c4)C(=O)N(C4CCC(=O)NC4=O)C5=O)CC3)CC2)cc1)c1ccc(B(O)O)cc1)c1ccccc1` (stereo not shown) [Compound 28, (E)-(4-(1-(4-(2-(4-(2-(4-(2-(2,6-dioxopiperidin-3-yl)-1,3-dioxoisoindolin-5-yl)piperazin-1-yl)ethyl)piperidin-1-yl)ethoxy)phenyl)-2-phenylbut-1-en-1-yl)phenyl)boronic acid], for which the IC50 in test [1] (Homo sapiens, MCF7) is 10 to 50 nM; in test [2], more than 50 nM. For the same compound, the DC50 in test [3] was less than 10 nM. In addition, the Dmax in test [3] (setting [4]) is more than 90%.

As for `CC/C(=C(/c1ccc(B(O)O)cc1)c1ccc(N2CCC(CN3CCN(c4ccc5c(c4)C(=O)N(C4CCC(=O)NC4=O)C5)CC3)CC2)cc1)c1ccccc1` (stereo not shown) [Compound 4, (E)-(4-(1-(4-(4-((4-(2-(2,6-dioxopiperidin-3-yl)-3-oxoisoindolin-5-yl)piperazin-1-yl)methyl)piperidin-1-yl)phenyl)-2-phenylbut-1-en-1-yl)phenyl)boronic acid], the IC50 is less than 10 nM in test [1] (Homo sapiens, MCF7) and less than 10 nM in test [2]. This compound also displayed a DC50 in test [3] of more than 50 nM. Also, the Dmax in test [3] (setting [4]) is more than 75%.

Take `CC/C(=C(/c1ccc(OCCN2CCN(C(=O)N3CCN(c4ccc5c(c4)CN([C@H]4CCC(=O)NC4=O)C5=O)CC3)CC2)cc1)c1ccc(B(O)O)cc1)c1ccccc1` [Compound 84]: the IC50 in test [1] (Homo sapiens, MCF7) was less than 10 nM; in test [2] it was less than 10 nM. The half-maximal degradation concentration (DC50) in test [3] is less than 10 nM. For the same compound, in test [3] (setting [4]), the Dmax is more than 90%.

For the compound `CC/C(=C(\c1ccc(O)cc1)c1ccc(OCCN2CCN(C(=O)N3CCN(c4ccc5c(c4)CN([C@@H]4CCC(=O)NC4=O)C5=O)CC3)CC2)cc1)c1ccccc1` [Compound 79, (R,Z)-3-(5-(4-(4-(2-(4-(1-(4-hydroxyphenyl)-2-phenylbut-1-en-1-yl)phenoxy)ethyl)piperazine-1-carbonyl)piperazin-1-yl)-1-oxoisoindolin-2-yl)piperidine-2,6-dione], the IC50 in test [1] (Homo sapiens, MCF7) was less than 10 nM; in test [2] it was less than 10 nM. In test [3], this compound had a DC50 of less than 10 nM. In test [3] (setting [4]), the Dmax is more than 90%.

As for `CC/C(=C(/c1ccc(B(O)O)cc1)c1ccc(N2CCC(CCCN3CCN(c4ccc5c(c4)CN(C4CCC(=O)NC4=O)C5=O)CC3)CC2)cc1)c1ccccc1` (stereo not shown) [Compound 54], the IC50 in test [1] (Homo sapiens, MCF7) was 10 to 50 nM; in test [2], less than 10 nM. In addition, the DC50 in test [3] was less than 10 nM. Besides, in test [3] (setting [4]), the Dmax is more than 90%.

For `CC/C(=C(\c1ccc(OCCN2CCN(C(=O)N3CCN(c4ccc5c(c4)CN([C@@H]4CCC(=O)NC4=O)C5=O)CC3)CC2)cc1)c1ccc(B(O)O)cc1)c1ccccc1` [Compound 88], the IC50 in test [1] (Homo sapiens, MCF7) is less than 10 nM; in test [2] it was less than 10 nM. Besides, the half-maximal degradation concentration (DC50) in test [3] was less than 10 nM. The greatest degradation seen (Dmax) in test [3] (setting [4]) is more than 90%.

Turning to `CC/C(=C(\c1ccc(B(O)O)cc1)c1ccc(N2CCN(C(=O)N3CCC(CN4CCN(c5ccc6c(c5)CN(C5CCC(=O)NC5=O)C6=O)CC4)CC3)CC2)cc1)c1ccccc1` (stereo not shown) [Compound 114, (Z)-(4-(1-(4-(4-(4-((4-(2-(2,6-dioxopiperidin-3-yl)-1-oxoisoindolin-5-yl)piperazin-1-yl)methyl)piperidine-1-carbonyl)piperazin-1-yl)phenyl)-2-phenylbut-1-en-1-yl)phenyl)boronic acid], the IC50 was less than 10 nM in test [1] (Homo sapiens, MCF7) and less than 10 nM in test [2]. Also, the DC50 in test [3] is less than 10 nM. Moreover, the maximal degradation (Dmax) in test [3] (setting [4]) is more than 90%.

Turning to `CC/C(=C(\c1ccc(O)cc1)c1ccc(OCCN2CCN(C(=O)N3CCC(CN4CCN(c5ccc6c(c5)CN(C5CCC(=O)NC5=O)C6=O)CC4)CC3)CC2)cc1)c1ccccc1` (stereo not shown) [Compound 89], the IC50 in test [1] and in test [2] was less than 10 nM throughout. Also, in test [3], the DC50 is less than 10 nM. The Dmax result in test [3] (Maximal ER degradation) is given as “A (A -> 90%)”.

As to `CC/C(=C(\c1ccc(B(O)O)cc1)c1ccc(N2CCC(CN3CCN(c4ccc5c(c4)C(=O)N(C4CCC(=O)NC4=O)C5)CC3)CC2)cc1)c1ccccc1` (stereo not shown) [Compound 3, (Z)-(4-(1-(4-(4-((4-(2-(2,6-dioxopiperidin-3-yl)-3-oxoisoindolin-5-yl)piperazin-1-yl)methyl)piperidin-1-yl)phenyl)-2-phenylbut-1-en-1-yl)phenyl)boronic acid], the IC50 in test [1] (Homo sapiens, MCF7) is less than 10 nM; in test [2] it was less than 10 nM. Besides, the DC50 in test [3] was more than 50 nM. The maximal degradation (Dmax) in test [3] (setting [4]) is more than 75%.

On to `CC/C(=C(/c1ccc(OCCN2CCC(CCN3CCN(c4ccc5c(c4)CN(C4CCC(=O)NC4=O)C5=O)CC3)CC2)cc1)c1ccc(B(O)O)cc1)c1ccccc1` (stereo not shown) [Compound 29, (Z)-(4-(1-(4-(2-(4-(2-(4-(2-(2,6-dioxopiperidin-3-yl)-1-oxoisoindolin-5-yl)piperazin-1-yl)ethyl)piperidin-1-yl)ethoxy)phenyl)-2-phenylbut-1-en-1-yl)phenyl)boronic acid], for which the IC50 in test [1] (Homo sapiens, MCF7) fell in the range of 10 to 50 nM; in test [2] it was 10 to 50 nM. For the same compound, the DC50 in test [3] was in the range of 10 to 50 nM. Also, in test [3] (setting [4]), the Dmax is more than 90%.

Turning to `CC/C(=C(\c1ccc(B(O)O)cc1)c1ccc(N2CCC(CCN3CCN(c4ccc5c(c4)C(=O)N(C4CCC(=O)NC4=O)C5=O)CC3)CC2)cc1)c1ccccc1` (stereo not shown) [Compound 63, (Z)-(4-(1-(4-(4-(2-(4-(2-(2,6-dioxopiperidin-3-yl)-1,3-dioxoisoindolin-5-yl)piperazin-1-yl)ethyl)piperidin-1-yl)phenyl)-2-phenylbut-1-en-1-yl)phenyl)boronic acid], the IC50 in test [1] (Homo sapiens, MCF7) fell in the range of 10 to 50 nM; in test [2], 10 to 50 nM. In addition, the half-maximal degradation concentration (DC50) in test [3] was 10 to 50 nM. Besides, the Dmax in test [3] (setting [4]) is more than 90%.

For `CC/C(=C(/c1ccc(O)cc1)c1ccc(N2CCN(C(=O)N3CCN(c4ccc5c(c4)CN([C@@H]4CCC(=O)NC4=O)C5=O)CC3)CC2)cc1)c1ccccc1` [Compound 102, (R,Z)-3-(5-(4-(4-(4-(1-(4-hydroxyphenyl)-2-phenylbut-1-en-1-yl)phenyl)piperazine-1-carbonyl)piperazin-1-yl)-1-oxoisoindolin-2-yl)piperidine-2,6-dione], the IC50 was 10 to 50 nM in test [1] (Homo sapiens, MCF7) and less than 10 nM in test [2]. This compound also yielded a 50% degradation concentration (DC50) in test [3] of less than 10 nM. Further, the Dmax in test [3] (setting [4]) was more than 90%.

Regarding `CC/C(=C(/c1ccc(OCCN2CCC(CN3CCN(c4ccc5c(c4)C(=O)N(C4CCC(=O)NC4=O)C5=O)CC3)CC2)cc1)c1ccc(B(O)O)cc1)c1ccccc1` (stereo not shown) [Compound 19, (Z)-(4-(1-(4-(2-(4-((4-(2-(2,6-dioxopiperidin-3-yl)-1,3-dioxoisoindolin-5-yl)piperazin-1-yl)methyl)piperidin-1-yl)ethoxy)phenyl)-2-phenylbut-1-en-1-yl)phenyl)boronic acid], the IC50 was more than 50 nM in test [1] (Homo sapiens, MCF7) and more than 50 nM in test [2]. This compound showed a DC50 in test [3] of 10 to 50 nM. In addition, the Dmax in test [3] (setting [4]) was more than 75%.
